{
  "source": "patent US20220160779A1",
  "about": "“COMPOSITION FOR PROMOTING CARTILAGE TISSUE REGENERATION” (National University Corporation Tokyo Medical and Dental …, priority 2019, published 2022)",
  "key": {"synovial MSCs [1]": {"system": "synovial MSCs", "assay": "In-vitro differentiation assay of MSCs (cartilage, bone, adipocytes)", "format": "cell-based, human", "details": "added to chondrogenic differentiation medium, pellet culture 2 weeks; FIG. 6C", "protocol": "In-vitro differentiation assays were performed according to the method described in Colter D C. et al, Proc Natl Acad Sci USA, 2001, 98, pp. 7841 to 7845.\nTo form chondrogenic spheroids, 2.5×10^5 cells were transferred into 15 mL polypropylene tubes (BD Biosciences) and subjected to centrifugation at 450×g for 10 minutes. Then, the cell pellets were cultured in chondrogenic medium containing 1000 ng/mL rhBMP-2 (Infuse Bone Graft; Medtronic, TN, USA), 10 ng/mL […], and 100 nM dexamethasone (Sigma-Aldrich, MO, USA) for 14 days.\nFor calcification, cells were cultured in normal growth medium supplemented with 1 nM dexamethasone, 20 mM β-glycerophosphate, and 50 μg/mL ascorbic acid-2-phosphate (Sigma-Aldrich) for 21 days. Calcified nodule formation was visualized by alizarin red staining (Sigma-Aldrich).\nFor adipogenesis, the cells were cultured for 21 days in MEM-alpha supplemented with 10% FBS, 100 nM dexamethasone (Sigma-Aldrich), 0.5 mM IBMX (isobutyl-1-methylxanthine; Sigma-Aldrich), and 50 μM indomethacin (Wako, Tokyo, Japan). The adipogenic cultures were immobilized and stained with Oil Red O solution (Sigma-Aldrich)."}, "C57BL/6J mice": {"system": "C57BL/6J mice", "assay": "Medial meniscus anterior 1/2 resection model", "format": "in vivo, mouse", "details": "intra-articular on day 7; 10 days after resection; FIG. 7A", "text": "Twenty male C57BL/6J mice (8 weeks old, weight: about 25 g) were used for this study (5 mice in each group. ORIENTAL YEAST Co., Ltd. Tokyo, Japan). After anesthesia by isoflurane inhalation, a straight incision was made in the left anterior knee, and the anterior central side of the joint capsule was cut. The patellar tendon was then dislocated laterally to expose the anterior corner of the medial meniscus (see Hiyama K. et al, J Orthop Res., 2017, 35(9), pp. 1958 to 1965). The anterior corner of the meniscus was cut and dislocated anteriorly using forceps. The medial meniscus was cut perpendicularly at the medial collateral ligament, and the anterior portion of the medial meniscus was resected in a microscopic operation using a surgical microscope. The skin was closed in layers with non-absorbable sutures. Note that the right knee was subjected to sham surgery. In addition, the mice were kept under a 12-hour light/dark cycle with free movement, free feeding, and drinking water.\nRecombinant human Activin A (42 ng/6 μL in PBS) and/or rh PDGF-AA (174 ng/6 μL in PBS) was injected intra-articularly on postoperative day 7 (see Hoshino T. et al., BMC Musculoskelet Disord., 2018, 19(1): 291). […]\nTissue samples were fixed in 4% paraformaldehyde for 3 to 4 days and subjected to decalcification in 20% ethylenediaminetetraacetic acid (EDTA) solution for 21 days. Then, they were embedded in paraffin wax. The specimens were then cut to a 5 μm thickness in the sagittal plane and stained with safranin O/Fast Green or hematoxylin/eosin (H&E) to histologically evaluate meniscus regeneration.\nA modified Pauli's score system was used to histologically quantify meniscus regeneration (see Hiyama K. et al, J Orthop Res. 2017, 35(9), pp. 1958 to 1965). Histological evaluation was performed by two investigators in a blind manner.\nType I and II collagen immunostaining was performed as described in Tsuji K. et al, Cell Transplant., 2017, 26(6), pp. 1089 to 1102. That is, sections were subjected to deparaffinization with xylene (Wako Pure Chemical Industries, Tokyo, Japan), rehydrated stepwise with alcohol, and saturated with phosphate buffered saline (PBS). For type II collagen staining, the samples were pretreated with 50 mM Tris-HCl buffer (Wako Pure Chemical Industries) containing 0.4 mg/ml Proteinase K (Dako, Agilent Technologies, Santa Clara, Calif., USA) for 10 min. For type I collagen staining, no digestion with Proteinase K was performed.\nNext, the cells were treated with methanol containing 0.3% hydrogen peroxide for 30 minutes to suppress the activity of endogenous peroxidase. As primary antibodies, anti-type I collagen antibody (1:200 dilution; Abcam cat. #ab34712, Cambridge, UK) or anti-type II collagen antibody (1:1000 dilution; Abcam […], Cambridge, UK) were added to the sections and incubated at 4° C. overnight. Then, the sections were rinsed with 0.1% PBS-Triton X-100 (MP Biomedicals Inc., Solon, Ohio, USA) and incubated with secondary antibodies diluted 1:200 [Biotinylated goat-derived anti-rabbit immunoglobulin G (IgG), Vector Laboratories, Burlingame, Calif., USA]. Then, the sections were rinsed, the signals were visualized with Vectastain ABC Reagent (Vector Laboratories), and diaminobenzidine staining (DAB, Vector Laboratories) was applied. In addition, the sections were contrast stained with hematoxylin (Muto Pure Chemicals, Tokyo, Japan)."}, "[2]": {"system": "rat model of total articular cartilage loss", "assay": "Full thickness articular cartilage defect model", "format": "in vivo", "details": "4 weeks after the defect, FIG. 8", "protocol": "Next, in order to verify the regeneration of damaged articular cartilage and the suppression of degenerative degeneration, a model of full thickness articular cartilage defect was prepared to examine the effects of rh Activin A administration. Specifically, a 1.4 mmφ total articular cartilage loss was prepared in the femoral intercondylar region using an airtome, and 180 ng of Activin A (rh Activin A) was injected intra-articularly 1 week later."}, "synovial MSCs [3]": {"system": "synovial MSCs", "assay": "Proliferation assay of synovial MSCs with recombinant protein (MTT assay)", "format": "cell-based, human", "details": "for effect of inhibitor on pro-proliferative activity of Activin A / cell count (MTT assay): 0.5% FBS + rh Activin A + inhibitor, FIG. 5E; for proliferation activation of MSCs (MTT assay): recombinant protein added to normal growth medium (10% FBS) up to 100 times the ED50, FIG. 3C", "protocol": "Primary human synovial cells were isolated from the synovial tissues obtained from patients who underwent total knee arthroplasty (TKA), as described in Sekiya I. et al, Clin Orthop Relat Res, 2015, 473(7), pp. 2316 to 2326. That is, first, 0.5 to 1 mg of synovium obtained by incising the suprapatellar bursa was subjected to collagenase D treatment (Sigma, MO, USA, 3 hours at 37° C.) to disperse nucleated cells. Debris was removed by passing the cell dispersion through a 70 μm nylon mesh. Nucleated cells were seeded in a 15 cm dish at 5.7×10^2 cells/cm^2 and maintained and cultured in MEM-alpha medium supplemented with 10% FBS and antibiotics (Gibco, MA, USA) for 14 days. The cells were then separated from the dish in TripLE solution (Gibco) and seeded twice more in a new dish to obtain a sufficient cell count to be used in the experiments. Note that in all experiments, cells within 6 passages were used.\nTo evaluate the pro-proliferative activity of recombinant proteins (IL6, IL8, IL10, and Activin A), MTT assays were performed (see FIGS. 3C and 5C-E). Synovial MSCs were seeded to 1×10^3 cells/well in 96-well plates and cultured in 0.2 mL of normal growth medium 1 day before being subjected to recombinant protein treatment. On the following day, the medium was replaced with a fresh one (normal growth medium or medium with a reduced FBS concentration of 0.5% and recombinant protein added (10 times the concentration of ED50 or 100 times the concentration of ED50)). MTT assays were performed at days 0, 1, 3, 5, and 7 according to the method described in Denizot F. et al., J Immunol Methods, 1986, 89(2), pp. 271 to 277.\nIn addition, the present inventors tried to clarify the molecular mechanism of MSC proliferative activity by Activin A. It has been reported that the ERK and PI3K signal transduction pathways are activated for MSC proliferation (see Uomizu, M. et al, J Med Dent Sci., 2018, vol. 65, pp. 73 to 82). With the above in mind, Activin A (rh Activin A) was applied to synovial MSCs in the presence of PI3K-PKB/Akt and Erk1/Erk2, a specific inhibitor for each of these signal transduction pathways, and the cell count was measured by MTT assay."}, "[4]": {"system": "rat meniscus damage model", "details": "intra-articular administration; cited from earlier work"}},
  "data": [
    {"molecule": "PDGF", "values": [
      {"measurement": "formation of chondrocyte aggregates (wet weight)", "setting": "synovial MSCs [1]", "value": "effect of promoting the formation of chondrocyte aggregates"},
      {"measurement": "vascular invasion in the regenerated region", "setting": "C57BL/6J mice", "value": "observed"},
      {"measurement": "chondrogenic differentiation of the formed tissue", "setting": "[2]", "value": "no significant promotion effect"},
      {"measurement": "formation of fibrocartilage-like tissue in the articular cartilage defect site", "setting": "[2]; intra-articular 1 week after defect (rh Activin A 180 ng/knee, rrPDGF-AA 900 ng/knee), vs PBS", "value": "promote the formation of fibrocartilage-like tissue"}
    ]},
    {"molecule": "O=c1[nH]c2ccccc2n1C1CCN(Cc2ccc(-c3nc4cc5[nH]cnc5cc4nc3-c3ccccc3)cc2)CC1", "note": "[Akt1/2, reference compound]", "values": [
      {"measurement": "effect of inhibitor on pro-proliferative activity of Activin A / cell count (MTT assay)", "setting": "synovial MSCs [3]", "value": "completely eliminated"}
    ]},
    {"molecule": "COc1cccc(-c2cc(=O)c3ccccc3o2)c1N", "note": "[PD98059, reference compound]", "values": [
      {"measurement": "effect of inhibitor on pro-proliferative activity of Activin A / cell count (MTT assay)", "setting": "synovial MSCs [3]", "value": "further reduced"}
    ]},
    {"molecule": "COc1ccc(-c2ccc3c(N4CCOCC4)nc(N4C[C@@H](C)O[C@@H](C)C4)nc3n2)cc1CO", "note": "[KU0063794, reference compound]", "values": [
      {"measurement": "effect of inhibitor on pro-proliferative activity of Activin A / cell count (MTT assay)", "setting": "synovial MSCs [3]", "value": "completely eliminated"}
    ]},
    {"molecule": "IL6: recombinant human IL6 protein", "values": [
      {"measurement": "proliferation activation of MSCs (MTT assay)", "setting": "synovial MSCs [3]", "value": "no proliferation activation of MSCs was observed"}
    ]},
    {"molecule": "IL8: recombinant human IL8 protein", "values": [
      {"measurement": "proliferation activation of MSCs (MTT assay)", "setting": "synovial MSCs [3]", "value": "no proliferation activation of MSCs was observed"}
    ]},
    {"molecule": "IL10: recombinant IL10 protein (protein, UniProt P22301 19-178, looked up) Interleukin-10: SPGQGTQSENSCTHFPGNLPNMLRDLRDAFSRVKTFFQMKDQLDNLLLKESLLEDFKGYLGCQALSEMIQFYLEEVMPQAENQDPDIKAHVNSLGENLKTLRLRLRRCHRFLPCENKSKAVEQVKNAFNKLQEKGIYKAMSEFDIFINYIEAYMTMKIRN", "values": [
      {"measurement": "proliferation activation of MSCs (MTT assay)", "setting": "synovial MSCs [3]", "value": "no proliferation activation of MSCs was observed"}
    ]},
    {"molecule": "FGF18: FGF18 given by intra-articular administration (protein, UniProt O76093 28-207, looked up) Fibroblast growth factor 18: EENVDFRIHVENQTRARDDVSRKQLRLYQLYSRTSGKHIQVLGRRISARGEDGDKYAQLLVETDTFGSQVRIKGKETEFYLCMNRKGKLVGKPDGTSKECVFIEKVLENNYTALMSAKYSGWYVGFTKKGRPRKGPKTRENQQDVHFMKRYPKGQPELQKPFKYTTVTKRSRRIRPTHPA", "values": [
      {"measurement": "articular cartilage degeneration and cartilage thickness at the tibial plateau", "setting": "[4]", "value": "suppress articular cartilage degeneration and increase cartilage thickness at the tibial plateau"}
    ]}
  ]
}
